# Reference: ChEMBL document CHEMBL2417438, “Preparation and antitrypanosomal activity of secochiliolide acid derivatives” (Bioorg Med Chem Lett, 2013)
# Active and inactive are the calls of the source. The rule behind the calls is not given here.
# Tested on: Trypanosoma cruzi
# Assay: Antiparasitic activity against epimastigotes of Trypanosoma cruzi assessed as inhibition of parasite proliferation
# Format: functional, organism-based
# Conditions: not given
row,IC50,SMILES
1,Not Active,COC(=O)CC[C@@H]1[C@@]2(C[C@@H](c3ccoc3)OC2=O)[C@H](C)CC[C@@]12OC2(C)C
2,Not Active,CC(C)=C1CC[C@@H](C)[C@]2(C[C@@H](c3ccoc3)OC2=O)[C@H]1CCC(=O)OC(C)(C)C
3,Not Active,CC(C)=C1CC[C@@H](C)[C@]2(C[C@@H](c3ccoc3)OC2=O)[C@H]1CCN=C=O

# Same assay, conditions: Trypanosoma cruzi; read-out: IC50
row,IC50,SMILES
1,2 µg/mL,CC(C)=C1CC[C@@H](C)[C@]2(C[C@@H](c3ccoc3)OC2=O)[C@H]1CCC(=O)O
2,5 µg/mL,C=C(C)[C@]12CC[C@@H](C)[C@]3(C[C@@H](c4ccoc4)OC3=O)[C@H]1CCC(=O)O2
3,5 µg/mL,CC(C)=C1CC[C@@H](C)[C@]2(C[C@@H](c3ccoc3)OC2=O)[C@H]1CCNC(=O)NCC[C@H]1C(=C(C)C)CC[C@@H](C)[C@]12C[C@@H](c1ccoc1)OC2=O
4,4 µg/mL,CC(C)=C1CC[C@@H](C)[C@]2(C[C@@H](c3ccoc3)OC2=O)[C@H]1CCNC(=O)N=[N+]=[N-]
5,2 µg/mL,CC(C)=C1CC[C@@H](C)[C@]2(C[C@@H](c3ccoc3)OC2=O)[C@H]1CCNC(=O)OC(C)(C)C
6,2 µg/mL,CC(C)=C1CC[C@@H](C)[C@]2(C[C@@H](c3ccoc3)OC2=O)[C@H]1CCC1=CC(=O)C=CC1=O
7,7 µg/mL,CC(C)=C1CC[C@@H](C)[C@]2(C[C@@H](c3ccoc3)OC2=O)[C@H]1CCc1cc(O)ccc1O

row,SMILES,IC50
1,O=C(Cn1ccnc1[N+](=O)[O-])NCc1ccccc1 [BENZNIDAZOLE],2.5 µg/mL

# Tested on: Trypanosoma cruzi
# Assay: Antiparasitic activity against epimastigotes of Trypanosoma cruzi assessed as inhibition of parasite proliferation at 1 to 10 ug/ml
# Format: functional, organism-based
# Conditions: not given
row,SMILES,inhibition
1,CC(C)=C1CC[C@@H](C)[C@]2(C[C@@H](c3ccoc3)OC2=O)[C@H]1CCC(=O)O,Active
